The values below come from US6375944B1, “Methods and compositions for enhancing the immunostimulatory effect of interleukin-12” (The Wistar Institute of Anatomy and Biology, priority 1998, dated 2002).

Where “and” joins values, the source holds several entries; their conditions need not be identical. Identical values can stand only once.

Assay [1] deals with SCK cells. The assay can be described thus: SCK.GM cell vaccination followed by SCK tumor cell challenge. The class given is in vivo, A/J mice. As to conditions: for Effect on SCK.GM-induced protection: mice not treated with rmIL-12, data not shown. The text has this:
A. Female A/J mice were vaccinated with 10^6 irradiated SCK.GM cells suspended in PBS at 10^7 trypan blue-excluding cells/ml. Cells were irradiated with 6000 rads from a ^137Cs source, and mice were vaccinated with 10^6 cells s.c. (day 0). […] Vaccinated and naive A/J mice were challenged fourteen days after vaccination with 2.5×10^4 trypan blue-excluding SCK cells in the opposite flank to assay for the presence of tumor immunity. Tumorigenesis was scored daily.

Assay [2] concerns SCK cells. As to the kind of experiment: Tumor cell rechallenge in mice with established SCK immunity. It is filed as in vivo, A/J mice. Particulars: for Prevention of rmIL-12 impairment of immune rejection: given with rmIL-12 therapy, established SCK immunity; for mice that developed tumors: rmIL-12 treated mice with established SCK immunity, data not shown. From the text:
Thus, L-NAME prevents rmIL-12 suppression of established antitumor immune responses.

The test system of assay [3] is SCK cells. The assay can be described thus: Irradiated wild-type SCK cell vaccination followed by SCK tumor cell challenge. As to conditions: for mice that developed tumors: given with irradiated SCK cells and rmIL-12, challenged on day 14. It is filed as in vivo, A/J mice. The text has this: Female A/J mice (8 mice per group) were vaccinated with 10^6 irradiated SCK cells and received either PBS, rmIL-12, rmIL-12+L-NAME or rmIL-12 and D-NAME on days 0-4 and 7-11. Mice were challenged fourteen days after vaccination with 2.5×10^4 SCK cells in the opposite flank. Tumorigenesis was scored daily, as described above.

For assay [4], the system named is SCK tumors. The assay can be described thus: Antitumor activity of rmIL-12 against SCK tumors (tumorigenesis scored daily). It is filed as in vivo, A/J mice. How it is done: Female A/J mice were injected with 2.5×10^4 SCK cells and either PBS, rmIL-12, rmIL-12+L-NAME or rmIL-12 and D-NAME on days 0-4 and 7-11. Tumorigenesis was scored daily, as described above.

In assay [5] the test system is NO production. The assay can be described thus: NO production measured as nitrite in stimulated cell supernatants by the Greiss assay. Also noted: dose or concentration left out as unconfirmed. As to conditions: cocultures of adherent cells from rmIL-12 treated mice and nonadherent control cells; compared to D-NMMA; two independent measurements. The class given is cell-based. The protocol:
(§1) Cocultures were established from splenic adherent and nonadherent cells of PBS-treated mice or from the adherent cells of rmIL-12-treated mice and nonadherent cells of PBS-treated mice. Antibodies XMG6 (to IFNγ), XT22 (to TNFα), AE5 (to IL-10) and C17.8 (to IL-12) were added to a final concentration of […] in cocultures containing adherent cells from spleen of rmIL-12-treated mice. An inhibitor of inducible nitric oxide synthase (iNOS), L-NMMA (Sigma), was added to cocultures of adherent cells from rmIL-12 treated mice and nonadherent cells from control mice at a final concentration of […]. Alternatively, D-NMMA (Sigma), a noninhibitory isoform of L-NMMA, was added to other cocultures as a control.
NO production was measured as nitrite concentration in stimulated cell supernatants by the Greiss assay [Green, L. C. et al, Anal. Biochem 126:131 (1982)]. Supernatant (100 μl) was added to 96 well plates; 100 μl of a 1:1 mixture of 1% sulfanilamide dihydrochloride in 2.5% H3PO4 and 0.1% naphthylethylenediamine dihydrochloride in 2.5% H3PO4 was then added to samples. Plates were incubated at room temperature for 10 minutes and A540 was determined using a microplate reader with reference to sodium nitrite standard curves. S-nitroso-N-acetyl-penillamine (SNAP, Sigma), an NO donor, was used as a acellular source of NO and was added to splenocytes from HKB-vaccinated C57BL/6 mice.

The test system of assay [6] is splenocytes. As to the kind of experiment: Mitogen and alloantigen stimulation of splenocytes (3H-thymidine incorporation), whole or adherent/nonadherent cocultures. The class given is cell-based, mice. Also noted: Effect on mitogenesis / inhibition of mitogenic responses: dose or concentration left out as unconfirmed. How it is done: The mitogen and alloantigen stimulation of splenocytes assay was performed as follows: In vitro mitogenic stimulation of splenocytes with […] Con A or 100 U/ml rmIL-12 was performed as described [Kurzawa, cited above]. Proliferative responses to allogeneic antigens (mixed lymphocyte reaction, MLR) was measured when splenocytes from the mice were stimulated with 10^5 mitomycin treated A/J splenocytes. Splenocyte fractionation was performed by allowing 10^5 splenocytes to adhere for 90 minutes in 96 well plates, after which the nonadherent cells were removed and cocultured with adherent cells from different wells for assay. When added, antibodies (XMG6 for IFNγ, XT22 for TNFα, AE5 for IL-10 and C17.8 for IL-12 ) were used at […] final concentration. After 72 hours exposure to mitogen, cultures were pulsed with 1 μCi^3H-thymidine for 16 hours, cells were harvested and ^3H incorporation was measured by scintillation counting. Supernatants from cultures assayed for IFNγ by radioimmunoassay (RIA) (using antibodies AN18 and XMG6 [Wysocka, M. et al. 1995 Eur. J. Immunol. 25:672] were harvested 24 or 72 hours after stimulation.
A. Splenocytes from rmIL-12- and PBS-treated C57BL/6 mice were fractioned by adherence to 96 well plastic plates for 90 minutes. The cells were reconstituted in various combinations of adherent and nonadherent cells by overlaying nonadherent cells on the adherent cells. These cocultures were then stimulated with either 2.5 μg/ml Con A, 100 U/ml IL-12, or 10^5 mitomycin C treated A/J (H-2A) splenocytes, as described in the mitogen/alloantigen assay of Example 1.
B. Cocultures were established from splenic adherent and nonadherent cells of PBS-treated mice or from the adherent cells of rmIL-12-treated mice and nonadherent cells of PBS-treated mice. Antibodies XMG6 (to IFNγ), XT22 (to TNFα), AE5 (to IL-10) and C17.8 (to IL-12 ) were added to a final concentration of […] in cocultures containing adherent cells from spleen of rmIL-12-treated mice, also according to the assay described in Example 1.
as §1
(Dividing cells build labelled thymidine or BrdU into new DNA.)

The mark [7] stands for this setting: SCK-vaccinated mice, at 28 days, rmIL-12 alone, or L-NAME/D-NAME given with rmIL-12.

Consider `COC(=O)[C@H](N)CCCNC(=N)N[N+](=O)[O-]` [D-NAME, N^ω-nitro-D-arginine methyl ester], for which the “mice that developed tumors” value was 75% in assay [1] (SCK.GM vaccinated, given with rmIL-12, challenge 14 days after vaccination); 75% in assay [2]; 75% in assay [3]. The “Effect on SCK.GM-induced protection” value in assay [1] is “had no effect”. The “Prevention of rmIL-12 impairment of immune rejection” value in assay [2] is on record as “not”. The same compound registered a level of protection in assay [3] (setting [7]) of 50%.
Consider `COC(=O)[C@@H](N)CCCNC(=N)N[N+](=O)[O-]` [L-NAME, N^ω-nitro-L-arginine methyl ester], for which, in assay [1] (given with rmIL-12 days 0-4 and 7-11, challenge 14 days after vaccination), the “Prevention of rmIL-12 impairment of SCK.GM vaccine protection” value was “prevented this impairment”. Also, the “Effect on SCK.GM-induced protection” value in assay [1] is “had no effect”. Moreover, in assay [2], the “Prevention of rmIL-12 impairment of immune rejection” value is “prevented this impairment of immune rejection”. Further, the “mice that developed tumors” value was determined as 25% in assay [2] and 38% in assay [3]. For the same compound, the level of protection in assay [3] (setting [7]) was found to be 50%; in assay [3] (SCK-vaccinated, given with rmIL-12, at 14 days), 62%. Also, in assay [4] (2.5×10^4 SCK cells, treatment days 0-4 and 7-11, L-NAME given with rmIL-12, 9 days without rmIL-12), the “median days to tumor appearance” value came out at 17 days. In assay [4] (L-NAME given with rmIL-12), the “delay of tumor appearance vs. mice given rmIL-12 alone or with D-NAME” value stood at 3 days. Moreover, in assay [4] (given without rmIL-12, data not shown), the “Effect on SCK tumorigenesis” value was “had no effect on SCK tumorigenesis”. In assay [4] (treatment started on day of SCK cell injection, L-NAME given with rmIL-12), the “delay of tumor appearance vs. untreated mice” value came to 8 days.
For the compound `CNC(=N)NCCC[C@H](N)C(=O)O` [L-NMMA, N^G-monomethyl-L-arginine], in assay [5], the “reduction of NO levels in the culture supernatant” value was 58% and 94%. Also, the Effect on mitogenesis result in assay [6] (cocultures of adherent cells from rmIL-12 treated mice and nonadherent control cells, compared to D-NMMA) is reported as “restored mitogenesis”.
Regarding “S-nitroso-N-acetyl-penillamine [SNAP, reference compound]”, the “inhibition of mitogenic responses” value in assay [6] (splenocytes from HKB-vaccinated C57BL/6 mice, cultures with NO levels as low as) is reported as 83-98%.
